For data set [1], the target named is T1, HIV-RT enzyme (HIV-1 reverse transcriptase) (Human immunodeficiency virus type 1 group M subtype B, UniProt P03366).
T1 construct: Reactions were initiated by the addition of 30 μl of the HIV-RT enzyme
In words: HIV-1 Reverse Transcriptase Assay Inhibitor IC50 Determination (RNA-dependent DNA polymerase activity, SPA). The data set is classed as biochemical. On the procedure:
HIV-1 Reverse Transcriptase Assay Inhibitor IC50 Determination
RNA-dependent DNA polymerase activity was measured using a biotinylated primer oligonucleotide and tritiated dNTP substrate. Newly synthesized DNA was quantified by capturing the biotinylated primer molecules on streptavidin coated Scintillation Proximity Assay (SPA) beads (Amersham). […] The biotinylated DNA primer was obtained from the Integrated DNA Technologies Inc. and the RNA template was synthesized by Dharmacon. […] Reactions were initiated by the addition of 30 μl of the HIV-RT enzyme (final concentrations of […]). Protein concentrations were adjusted to provide linear product formation for at least 30 min of incubation. After incubation at 30° for 30 min, the reaction was quenched by addition of 50 μl of 200 mM EDTA (pH 8.0) and 2 mg/ml SA-PVT SPA beads (Amersham, RPNQ0009, reconstituted in 20 mM Tris-HCl, pH 8.0, 100 mM EDTA and 1% BSA). The beads were left to settle overnight and the SPA signals were counted in a 96-well top counter-NXT (Packard). IC50 values were obtained by sigmoidal regression analysis using GraphPad Prism 3.0 (GraphPad Software, Inc.).

Setting [2] is: RNA-dependent DNA polymerase activity, SPA, 30 min at 30°, read-out: HIV-RT IC50.

Structures can show the parent of a compound that is named as a salt. Where two headings read alike, the source gives them in different places.

For “2-[3-(3-Chloro-5-cyano-phenoxy)-4-cyclopropyl-2-fluoro-phenoxy]-N-(2-chloro-4-sulfamoyl-phenyl)-acetamide [I-9]”, the IC50 (commonly the midpoint of a concentration-inhibition curve) in data set [1] (setting [2]) came out at 7.7 nM.

As for “2-[4-Bromo-3-(3-chloro-5-cyano-phenoxy)-2-fluoro-phenoxy]-N-[2-chloro-4-(2,4-dioxo-imidazolidin-1-yl)-phenyl]-acetamide [I-30]”, the IC50 in data set [1] (setting [2]) is 15.5 nM.

Take “2-[4-Chloro-3-(3,5-dicyano-phenoxy)-2-fluoro-phenoxy]-N-(2-methyl-4-sulfamoyl-phenyl)-acetamide [I-14]”: in data set [1] (setting [2]), the IC50 came out at 6.4 nM.

Take `CCC(=O)NS(=O)(=O)c1ccc(NC(=O)COc2ccc(Br)c(Oc3cc(Cl)cc(C#N)c3)c2F)c(Cl)c1` (as salt: Na) [I-23]: the melting point (commonly the temperature of the solid-liquid transition) fell in the range of 261 to 264 °C.

For `CCC(=O)NS(=O)(=O)c1ccc(NC(=O)COc2ccc(Br)c(Oc3cc(Cl)cc(C#N)c3)c2F)c(C)c1` (as salt: Na) [I-24], the melting point was 268.1 to 270 °C.

`N#Cc1cc(Cl)cc(Oc2c(Cl)ccc(OCC(=O)Nc3ccc(S(N)(=O)=O)cc3Cl)c2F)c1` [I-1, 2-[4-Chloro-3-(3-chloro-5-cyano-phenoxy)-2-fluoro-phenoxy]-N-(2-chloro-4-sulfamoyl-phenyl)-acetamide] displayed a melting point of 233.3 to 247.6 °C. Also, the IC50 in data set [1] (setting [2]) came out at 16.2 nM.

Take `Cc1cc(S(N)(=O)=O)ccc1NC(=O)COc1ccc(Cl)c(Oc2cc(Cl)cc(C#N)c2)c1F` [I-2]: the melting point was 209.9 to 212 °C. In addition, the 50% inhibitory concentration (IC50) in data set [1] (setting [2]) was found to be 12.8 nM.

Compound `Cc1cc(S(N)(=O)=O)ccc1NC(=O)COc1ccc(Br)c(Oc2cc(Cl)cc(C#N)c2)c1F` [I-4, 2-[4-Bromo-3-(3-chloro-5-cyano-phenoxy)-2-fluoro-phenoxy]-N-(2-methyl-4-sulfamoyl-phenyl)-acetamide] returned a melting point of 226 to 228.8 °C. Besides, the half-inhibitory concentration (IC50) in data set [1] (setting [2]) worked out at 6.5 nM.

Regarding `N#Cc1cc(Cl)cc(Oc2c(Br)ccc(OCC(=O)Nc3ccc(S(N)(=O)=O)cc3Cl)c2F)c1` [I-5], the melting point is 250.9 to 252.3 °C. For the same compound, the IC50 in data set [1] (setting [2]) is 18.7 nM.

Compound `CCc1ccc(OCC(=O)Nc2ccc(S(N)(=O)=O)cc2C)c(F)c1Oc1cc(Cl)cc(C#N)c1` [I-6, 2-[3-(3-Chloro-5-cyano-phenoxy)-4-ethyl-2-fluoro-phenoxy]-N-(2-methyl-4-sulfamoyl-phenyl)-acetamide] showed a melting point of 188 to 189.6 °C. Further, the IC50 in data set [1] (setting [2]) was determined as 8.4 nM.

Take `CCc1ccc(OCC(=O)Nc2ccc(S(N)(=O)=O)cc2Cl)c(F)c1Oc1cc(Cl)cc(C#N)c1` [I-7]: the IC50 in data set [1] (setting [2]) was more than 10000 nM.

`N#Cc1cc(Cl)cc(Oc2c(C3CC3)ccc(OCC(=O)Nc3ccc(S(N)(=O)=O)cc3Cl)c2F)c1` [I-8] came in with a melting point of 210 to 211 °C. Moreover, the IC50 in data set [1] (setting [2]) is 18.3 nM.

Compound `N#Cc1cc(Cl)cc(Oc2cc(OCC(=O)Nc3ccc(S(N)(=O)=O)cc3Cl)ccc2Cl)c1` [I-10] yielded a melting point of 217 to 219 °C. In addition, the half-inhibitory concentration (IC50) in data set [1] (setting [2]) was 7.4 nM.

In turn, `COc1cc(C#N)cc(Oc2c(Cl)ccc(OCC(=O)Nc3ccc(S(N)(=O)=O)cc3C)c2F)c1` [I-11] returned a melting point of 122 to 123.2 °C. The IC50 in data set [1] (setting [2]) amounted to 3.1 nM.

Compound `COc1cc(C#N)cc(Oc2c(Cl)ccc(OCC(=O)Nc3ccc(S(N)(=O)=O)cc3Cl)c2F)c1` [I-12] returned a melting point of 211 to 212 °C. Besides, the IC50 in data set [1] (setting [2]) turned out to be 8.2 nM.

`Cc1cc(S(N)(=O)=O)ccc1NC(=O)COc1ccc(Cl)c(Oc2cc(C#N)cc(C#N)c2)c1F` [I-13] registered a melting point of 264.5 to 265.2 °C. Also, in data set [1] (setting [2]), the IC50 was 3.8 nM.

As for `Cc1cc(S(N)(=O)=O)ccc1NC(=O)COc1ccc(Cl)c(Oc2cc(Cl)cc(C#N)c2)c1` [I-15, 2-[4-Chloro-3-(3-chloro-5-cyano-phenoxy)-phenoxy]-N-(2-methyl-4-sulfamoyl-phenyl)-acetamide], the IC50 in data set [1] (setting [2]) was found to be 6.5 nM.

Compound `COc1cc(C#N)cc(Oc2c(Br)ccc(OCC(=O)Nc3ccc(S(N)(=O)=O)cc3C)c2F)c1` [I-16] came in with a melting point of 220 to 223.3 °C. The IC50 in data set [1] (setting [2]) was 5.1 nM.

The compound `COc1cc(C#N)cc(Oc2c(Br)ccc(OCC(=O)Nc3ccc(S(N)(=O)=O)cc3Cl)c2F)c1` [I-17] registered a melting point of 213.9 to 217.9 °C. For the same compound, the concentration for half-maximal inhibition (IC50) in data set [1] (setting [2]) worked out at 12.6 nM.

`Cc1cc(S(N)(=O)=O)ccc1NC(=O)COc1ccc(Cl)c(Oc2cc(Br)cc(C#N)c2)c1F` [I-18] came in with a melting point of 234.9 to 236.6 °C. In data set [1] (setting [2]), the IC50 was 6.6 nM.

Compound `N#Cc1cc(Br)cc(Oc2c(Cl)ccc(OCC(=O)Nc3ccc(S(N)(=O)=O)cc3Cl)c2F)c1` [I-19] registered a melting point of 242.2 to 244.9 °C. Besides, the concentration for half-maximal inhibition (IC50) in data set [1] (setting [2]) worked out at 14.9 nM.

Regarding `CCc1cc(C#N)cc(Oc2c(Cl)ccc(OCC(=O)Nc3ccc(S(N)(=O)=O)cc3Cl)c2F)c1` [I-20, 2-[4-Chloro-3-(3-cyano-5-ethyl-phenoxy)-2-fluoro-phenoxy]-N-(2-chloro-4-sulfamoyl-phenyl)-acetamide], in data set [1] (setting [2]), the IC50 was determined as 31.7 nM.

In turn, `N#Cc1cc(C#N)cc(Oc2c(Br)ccc(OCC(=O)Nc3ccc(S(N)(=O)=O)cc3Cl)c2F)c1` [I-21] showed a melting point of 255 to 257 °C. Further, the IC50 in data set [1] (setting [2]) turned out to be 19.1 nM.

Regarding `CCC(=O)NS(=O)(=O)c1ccc(NC(=O)COc2ccc(Br)c(Oc3cc(Cl)cc(C#N)c3)c2F)c(Cl)c1` [I-23], the concentration for half-maximal inhibition (IC50) in data set [1] (setting [2]) came out at 4.8 nM.

For `CCC(=O)NS(=O)(=O)c1ccc(NC(=O)COc2ccc(Br)c(Oc3cc(Cl)cc(C#N)c3)c2F)c(C)c1` [I-24], the IC50 in data set [1] (setting [2]) amounted to 5.7 nM.

`N#Cc1cc(Oc2c(Cl)ccc(OCC(=O)Nc3ccc(S(N)(=O)=O)cc3Cl)c2F)cc(C2CC2)c1` [I-26]: the melting point fell in the range of 219 to 221 °C. Besides, in data set [1] (setting [2]), the IC50 worked out at 66.5 nM.

`N#Cc1cc(Cl)cc(Oc2c(Cl)ccc(OCC(=O)Nc3ccc(C(=O)O)cc3Cl)c2F)c1` [I-27, 3-Chloro-4-{2-[4-chloro-3-(3-chloro-5-cyano-phenoxy)-2-fluoro-phenoxy]-acetylamino}-benzoic acid]: the IC50 in data set [1] (setting [2]) was 6.1 nM.

Regarding `Cc1cc(C(N)=O)ccc1NC(=O)COc1ccc(Br)c(Oc2cc(Cl)cc(C#N)c2)c1F` [I-28, 4-{2-[4-Bromo-3-(3-chloro-5-cyano-phenoxy)-2-fluoro-phenoxy]-acetylamino}-3-methyl-benzamide], the melting point fell in the range of 250.6 to 252.5 °C. Besides, the IC50 in data set [1] (setting [2]) is 6.9 nM.

Compound `CC(C)(O)C#Cc1ccc(NC(=O)COc2ccc(Br)c(Oc3cc(Cl)cc(C#N)c3)c2F)c(Cl)c1` [I-31, 2-[4-Bromo-3-(3-chloro-5-cyano-phenoxy)-2-fluoro-phenoxy]-N-[2-chloro-4-(3-hydroxy-3-methyl-but-1-ynyl)-phenyl]-acetamide] registered an IC50 in data set [1] of 82.1 nM.

Turning to `CC(C)(N)C#Cc1ccc(NC(=O)COc2ccc(Cl)c(Oc3cc(Cl)cc(C#N)c3)c2F)c(Cl)c1` [I-32, N-[4-(3-Amino-3-methyl-but-1-ynyl)-2-chloro-phenyl]-2-[4-chloro-3-(3-chloro-5-cyano-phenoxy)-2-fluoro-phenoxy]-acetamide], in data set [1] (setting [2]), the IC50 was found to be 21.4 nM.

(Values after patent US20080020981A1, “Non-nucleoside reverse transcriptase inhibitors” (Roche Palo Alto LLC, priority 2006, published 2008).)
